The text below walks through data of PMC4667271, “Discovery of a Novel Inhibitor of the Protein Tyrosine Phosphatase Shp2” (Scientific Reports, 2015).

The IC50 is the concentration at which inhibition is half-maximal.

The test system of experiment [1] is ERK1/2 activation in HEK293T cells expressing H-RasV12. Kind of experiment: RasV12-induced ERK1/2 activation in transfected HEK293T. The format is cell-based, human. To be noted: Fumos 20 μM or U0126 10 μM, 24 h. The procedure:
DMSO treatment as control. […] (c) Fumos inhibits EGF-induced Ras activation.
HEK293T, MDA-MB-231and HeLa cell lines were obtained from CRC/PUMC. Cell lines were maintained in Dulbecco’s modified Eagle’s medium supplemented with 10% fetal bovine serum. Transfections were performed in 6-well plates according to manufacturer (Invitrogen Lipofectamine LTX).Briefly, for transient transfection of HEK293T cells, subconfluent cells in 6-well plates were incubated with 2 ml of Dulbecco’s modified Eagle’s medium containing 2.5 μg of total DNA and 7.5 μl of each Lipofectamine and Plus reagent (Invitrogen) and then serum-starved in DMEM/0.1% bovine serum albumin for 18 h. After Fumos treatment for 24 h, cells were stimulated for 5 min with 20 ng/ml EGF.
After centrifugation, the supernatant was collected.

Experiment [2] addresses T1, full-length Shp2 (Shp2 FL) (Homo sapiens, UniProt Q06124).
T1 sequence (Q06124 1-593): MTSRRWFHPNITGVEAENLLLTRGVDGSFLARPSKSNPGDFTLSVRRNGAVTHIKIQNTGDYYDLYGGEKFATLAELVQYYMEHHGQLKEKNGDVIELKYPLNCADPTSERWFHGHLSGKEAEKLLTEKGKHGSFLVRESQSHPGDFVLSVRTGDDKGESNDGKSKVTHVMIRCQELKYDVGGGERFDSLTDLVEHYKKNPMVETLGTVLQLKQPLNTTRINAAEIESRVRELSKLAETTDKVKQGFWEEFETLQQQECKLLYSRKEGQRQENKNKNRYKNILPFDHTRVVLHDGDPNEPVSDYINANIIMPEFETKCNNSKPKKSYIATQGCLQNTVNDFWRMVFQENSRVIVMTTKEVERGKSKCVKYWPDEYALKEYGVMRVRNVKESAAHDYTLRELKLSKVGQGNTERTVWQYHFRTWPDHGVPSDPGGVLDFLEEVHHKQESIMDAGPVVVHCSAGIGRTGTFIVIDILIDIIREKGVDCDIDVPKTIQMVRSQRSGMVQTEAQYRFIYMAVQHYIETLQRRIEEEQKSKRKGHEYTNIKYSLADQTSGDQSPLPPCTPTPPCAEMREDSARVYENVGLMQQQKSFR
Kind of experiment: in vitro PTP assay (pNPP), full-length Shp2. The format is biochemical. The conditions noted are these: full-length Shp2 (Shp2 FL). The procedure: (§1) Plasmids for expression of His-tag fusion proteins of human PTP were constructed in PET-28a by PCR subcloning techniques. The constructions contain only the PTP domain except Full-length Shp2. Full-length Shp2 containing Tyr279-to-Ala mutant was generated by PCR-based mutagenesis. All constructs were verified by DNA sequencing. PTP-His fusion proteins were expressed in Escherichia coli BL21 and lysed in the buffer (50 mM NaH2PO4, 300 mM NaCl, 250 mM imidazole, 1 mM dithiothreitol plus 5% glycerol), purified with Ni-NTA Magnetic Agarose Beads (Qiagen). The His-tag recombinant purification protocol was carried out according to the purification under native conditions of the QIAexpress System.
(§2) The assay was set in wells of 96-well plate with a final volume of 100 μl of reaction mixture containing 10 mM of NaAc-HAc, 1 mM of ethylene diamine tetraacetic acid, 1 mM of DL-dithiothreitol and 2% of dimethyl sulfoxide, pH 5.5. Activity of the enzyme was assayed by incubating recombinant PTP protein or mutant PTP with various concentrations of Fumos in the mixture at 37 °C for 30 min. Absorbance at 405 nm was detected immediately after addition of varied concentrations of substrate, p-nitrophenyl phosphate (pNPP) to each corresponding well.

Experiment [3] addresses T2, Shp2 PTP domain (Homo sapiens, UniProt Q06124).
T2 sequence (Q06124 247-517 limits assumed): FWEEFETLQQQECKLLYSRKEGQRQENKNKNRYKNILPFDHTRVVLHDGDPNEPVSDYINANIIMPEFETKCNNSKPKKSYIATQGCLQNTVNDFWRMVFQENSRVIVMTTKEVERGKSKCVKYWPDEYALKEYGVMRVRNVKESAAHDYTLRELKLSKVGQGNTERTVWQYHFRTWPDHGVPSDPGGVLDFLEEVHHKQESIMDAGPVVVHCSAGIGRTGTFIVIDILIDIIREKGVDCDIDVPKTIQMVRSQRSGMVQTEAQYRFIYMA
Kind of experiment: in vitro PTP assay (pNPP), Shp2 PTP domain. In kind it is biochemical. To be noted: Shp2 PTP domain; pNPP; mean ± S.E.M., triplicate; read-out: IC50. How it is done:
as §1, §2

In the case of `N#CC(=C(/N)Sc1ccccc1N)/C(C#N)=C(/N)Sc1ccccc1N` [U0126, reference compound], the “RasV12-induced ERK1/2 activation” value in experiment [1] is on record as “blocked ERK1/2 phosphorylation”.
As to `[Na+].[Na+].[Na+].[O]=[V]([O-])([O-])[O-]` [sodium orthovanadate, reference compound], the results for the concentration for half-maximal inhibition (IC50) in experiment [2] and in experiment [3] were 630 µM and 620 µM, respectively.
